Patent US5786348A, “Methods for preparation and use of 1α,24(S)-dihydroxy vitamin D2” (priority 1995, dated 1998)

Columns and labels:
[1] = Hypocalcemia and metabolic bone disease in chronic hemodialysis patients; assay type: in vivo, human; details: greater than 3.0 μg/day, twelve months
Description: A twelve-month, double-blind, placebo-controlled clinical trial is conducted with thirty men and women with renal disease who are undergoing chronic hemodialysis. […] Efficacy is evaluated by pre- and post-treatment comparisons of the two patient groups with regard to (a) direct measurements of intestinal calcium absorption, (b) total body calcium retention, (c) radial and spinal bone mineral density, or (d) determinations of serum calcium. Safety is evaluated by regular monitoring of serum calcium.

Human keratinocytes = assay: Epidermal cell differentiation and proliferation testing; assay type: cell-based; details: 0.05 to 5 μg/ml; against ethanol control cultures
Description: Human keratinocytes are cultured according to known modifications of the system originally described by Rheinwald and Green (Cell, vol. 6, p. 331 (1975)). The 1α,24(S)-dihydroxy vitamin D2, dissolved in ethanol, is added to cells to yield a variety of concentrations between 0.05 and 5 μg/ml with the ethanol concentration not to exceed 0.5% v/v. Control cultures are supplemented with ethanol at a final concentration of 0.5% v/v.
Differentiation and proliferation of epidermal cells in culture is examined by:
1. quantitation of cornified envelopes;
2. quantitation of cell density of cells attached to disks;
3. monitoring transglutaminase activity; or
4. monitoring DNA synthesis by incorporation of ^3 H-thymidine.

[2] = test system: human cancer cell lines BCA-1 or ZR-75-1 (breast) and COL-1 (colon); assay: Antiproliferative activity in human cancer cell lines (thymidine incorporation); assay type: cell-based; details: dose-response in breast and colon cancer cell lines
Description: Dose-response studies are conducted with 1α,24(S)-(OH)2 D2 in a battery of human cancer cell lines. These cell lines include, but are not limited to, the following: BCA-1 or ZR-75-1 (breast) and COL-1 (colon), as described by Shieh, H. L. et al. Chem. Biol. Interact., vol. 81, pp. 35-55 (1982). In this study, appropriate solvents are used as negative controls.

[3] = Dose ranging study in postmenopausal osteoporotic women; assay type: in vivo, human; details: oral 0.5 to 8.0 μg/day, rising weekly over five weeks
Description: Twenty postmenopausal osteoporotic women are enrolled in an open label study.
On admission to the study, all patients receive instruction on selecting a daily diet containing 400 to 600 mg of calcium. Compliance to this diet is verified at weekly intervals by 24-hour food records and by interviews with each patient.
All patients complete a one-week baseline period, a five-week treatment period, and a one-week post-treatment observation period. During the treatment period, patients orally self-administer 1α,24(S)-dihydroxyvitamin D2 at an initial dose of 0.5 μg/day for the first week, and at successively higher doses of 1.0, 2.0, 4.0, and 8.0 μg/day in each of the following four weeks. All doses are administered before breakfast.
Blood and urine chemistries are monitored on a weekly basis throughout the study. Key blood chemistries include fasting serum levels of calcium, phosphorus, osteocalcin, creatinine, and blood urea nitrogen. Key urine chemistries include 24-hour excretion of calcium, phosphorus, and creatinine.

vitamin D receptor (VDR) = target: T1, vitamin D receptor (VDR) (Homo sapiens, UniProt P11473); assay: Vitamin D-dependent transcriptional activation: growth hormone production in COS-1 cells co-transfected with VDR plasmid and VDRE-GH reporter; assay type: cell-based; details: for Total GH Production: averages of duplicate determinations
T1 sequence (P11473 1-427): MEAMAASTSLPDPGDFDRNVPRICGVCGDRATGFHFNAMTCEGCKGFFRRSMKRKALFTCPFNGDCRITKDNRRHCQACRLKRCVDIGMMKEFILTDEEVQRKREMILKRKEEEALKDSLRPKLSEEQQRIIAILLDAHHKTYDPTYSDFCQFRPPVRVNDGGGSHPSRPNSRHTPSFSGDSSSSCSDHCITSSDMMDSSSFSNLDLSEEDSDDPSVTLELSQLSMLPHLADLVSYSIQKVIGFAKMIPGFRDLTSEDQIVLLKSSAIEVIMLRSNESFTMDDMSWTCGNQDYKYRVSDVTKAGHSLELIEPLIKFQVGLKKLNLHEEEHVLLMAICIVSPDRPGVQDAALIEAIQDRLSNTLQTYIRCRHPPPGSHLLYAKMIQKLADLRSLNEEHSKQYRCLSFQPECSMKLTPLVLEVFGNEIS
Description: The biological activity in vitro of chemically synthesized 1α,24(S)-(OH)2 D2 and 1α,24(R)-(OH)2 D2 was measured using a vitamin D-dependent transcriptional activation model system in which a vitamin D receptor (VDR)-expressing plasmid pSG5-hVDR1/3and a plasmid p(CT4)^4 TKGH containing a Growth Hormone (GH)-gene, under the control of a vitamin D-responsive element (VDRE) were co-transfected into Green monkey kidney, COS-1 cells. DNA's for these two vectors were supplied by Dr. Mark Haussler, Department of Biochemistry, University of Arizona, Tucson, Ariz.
Transfected cells were incubated with vitamin D metabolites and growth hormone production was measured.

[4] = inducer molar concentration 5 × 10^-8
[5] = inducer molar concentration 5 × 10^-9
[6] = inducer molar concentration 5 × 10^-10

Question: Which Incidence of hypercalcemia [1] does the source give for `C=C1/C(=C\C=C2/CCC[C@]3(C)[C@@H]([C@H](C)/C=C/[C@@](C)(O)C(C)C)CC[C@@H]23)C[C@@H](O)C[C@@H]1O` [1α,24(S)-(OH)2 D2, 1α,24(S)-dihydroxy vitamin D2] here?
Answer: insignificant incidence

Question: And the “Intestinal calcium absorption (double-isotope technique)” value [1]?
Answer: significantly increases

Question: And the “Radial and spinal bone densities relative to baseline” value [1]?
Answer: stable

Question: What about the Serum calcium levels [1] of the same molecule?
Answer: normalized

Question: And the “Total body calcium relative to baseline” value [1]?
Answer: stable values

Question: What about the “Cell density of attached cells” value (Human keratinocytes) of the same molecule?
Answer: fewer attached cells

Question: What about the Cornified envelopes (Human keratinocytes) of the same molecule?
Answer: more cornified envelopes

Question: And the “DNA synthesis (3H-thymidine incorporation)” value (Human keratinocytes)?
Answer: lower DNA synthesis

Question: And the Transglutaminase activity (Human keratinocytes)?
Answer: higher transglutaminase activity

Question: And the “Antiproliferative activity (inhibition of thymidine incorporation)” value [2]?
Answer: potent (and reversible) antiproliferative activity

Question: And the “24-hour urinary calcium levels” value [3]?
Answer: modest increases

Question: And the “Routinely monitored serum parameters” value [3]?
Answer: no effect

Question: What about the Serum osteocalcin levels [3] of the same molecule?
Answer: increases

Question: What about the “Activity in the transcriptional activation system relative to 1α,24(R)-(OH)2 D2” value (vitamin D receptor (VDR); compared with the 24(R) epimer) of the same molecule?
Answer: significantly more activity

Question: What about the “Net vitamin D-inducible GH-production” value (vitamin D receptor (VDR); [4]) of the same molecule?
Answer: 1138 ng/mL

Question: And the “Total GH Production” value (vitamin D receptor (VDR); [4])?
Answer: 1182 ng/mL

Question: What about the “Net vitamin D-inducible GH-production” value (vitamin D receptor (VDR); [5]) of the same molecule?
Answer: 1306 ng/mL

Question: What about the “Total GH Production” value (vitamin D receptor (VDR); [5]) of the same molecule?
Answer: 1350 ng/mL

Question: And the “Net vitamin D-inducible GH-production” value (vitamin D receptor (VDR); [6])?
Answer: 381 ng/mL

Question: And the “Total GH Production” value (vitamin D receptor (VDR); [6])?
Answer: 425 ng/mL
